Results published in PubChem BioAssay AID1259407 (Chemical Carcinogenesis Research Information System (CCRIS), 2018).
Calls of active or inactive are those of the source. The rule behind the calls is not given here.

Tested on: CCRIS mutagenicity, Ames/micronucleus/aberration tests
Assay: CCRIS mutagenicity studies
[1] = Test System: AMES SALMONELLA TYPHIMURIUM, Strain/Indicator: TA98, Metabolic Activation: NONE, Method: PREINCUBATION
[2] = Test System: AMES SALMONELLA TYPHIMURIUM, Strain/Indicator: TA100, Metabolic Activation: NONE, Method: PREINCUBATION
[3] = Test System: MOUSE LYMPHOMA, Strain/Indicator: L5178Y (TK+/TK-), Metabolic Activation: RAT, LIVER, S-9, AROCLOR 1254, Method: SUSPENSION/PLATE
[4] = Test System: AMES SALMONELLA TYPHIMURIUM, Strain/Indicator: TA98, Metabolic Activation: NONE, Method: STANDARD PLATE
[5] = Test System: AMES SALMONELLA TYPHIMURIUM, Strain/Indicator: TA100, Metabolic Activation: NONE, Method: STANDARD PLATE
[6] = Test System: AMES SALMONELLA TYPHIMURIUM, Strain/Indicator: TA100, Metabolic Activation: RAT, LIVER, S-9, AROCLOR 1254, Method: STANDARD PLATE

`CC1(C)S[C@@H]2[C@H](NC(=O)[C@H](N)c3ccccc3)C(=O)N2[C@H]1C(=O)O` was tested, and the mutagenic call (End Point: IN VITRO CHROMOSOMAL ABERRATIONS, Test System: CHO CELLS, Metabolic Activation: NONE) was “inactive; negative; testing limited by solubility of chemical”, the mutagenic call (End Point: IN VITRO CHROMOSOMAL ABERRATIONS, Test System: CHO CELLS, Metabolic Activation: RAT, LIVER, S-9, AROCLOR 1254) was “inactive; negative; testing limited by solubility of chemical” and the mutagenic call (Test System: AMES SALMONELLA TYPHIMURIUM, Strain/Indicator: TA98, Metabolic Activation: HAMSTER, LIVER, S-9, AROCLOR 1254, Method: PREINCUBATION) was “inactive; negative”. The mutagenic call [1] was “inactive; negative”, the mutagenic call (Test System: AMES SALMONELLA TYPHIMURIUM, Strain/Indicator: TA98, Metabolic Activation: RAT, LIVER, S-9, AROCLOR 1254, Method: PREINCUBATION) was “inactive; negative” and the mutagenic call (Test System: AMES SALMONELLA TYPHIMURIUM, Strain/Indicator: TA100, Metabolic Activation: HAMSTER, LIVER, S-9, AROCLOR 1254, Method: PREINCUBATION) was “inactive; negative”. For the same compound, the mutagenic call [2] was “inactive; negative”, the mutagenic call (Test System: AMES SALMONELLA TYPHIMURIUM, Strain/Indicator: TA100, Metabolic Activation: RAT, LIVER, S-9, AROCLOR 1254, Method: PREINCUBATION) was “inactive; negative” and the mutagenic call (Test System: AMES SALMONELLA TYPHIMURIUM, Strain/Indicator: TA1535, Metabolic Activation: HAMSTER, LIVER, S-9, AROCLOR 1254, Method: PREINCUBATION) was “inactive; negative”. The mutagenic call (Test System: AMES SALMONELLA TYPHIMURIUM, Strain/Indicator: TA1535, Metabolic Activation: NONE, Method: PREINCUBATION) was “inactive; negative”, the mutagenic call (Test System: AMES SALMONELLA TYPHIMURIUM, Strain/Indicator: TA1535, Metabolic Activation: RAT, LIVER, S-9, AROCLOR 1254, Method: PREINCUBATION) was “inactive; negative” and the mutagenic call (Test System: AMES SALMONELLA TYPHIMURIUM, Strain/Indicator: TA1537, Metabolic Activation: HAMSTER, LIVER, S-9, AROCLOR 1254, Method: PREINCUBATION) was “inactive; negative”. The mutagenic call (Test System: AMES SALMONELLA TYPHIMURIUM, Strain/Indicator: TA1537, Metabolic Activation: NONE, Method: PREINCUBATION) was “inactive; negative”, the mutagenic call (Test System: AMES SALMONELLA TYPHIMURIUM, Strain/Indicator: TA1537, Metabolic Activation: RAT, LIVER, S-9, AROCLOR 1254, Method: PREINCUBATION) was “inactive; negative” and the mutagenic call (Test System: MOUSE LYMPHOMA, Strain/Indicator: L5178Y (TK+/TK-), Metabolic Activation: NONE, Method: SUSPENSION/PLATE) was “inactive; negative”. For the same compound, the mutagenic call [3] was “inactive; negative”.
`C/C(=C(\CCOC(=O)c1ccccc1)SC(=O)c1ccccc1)N(C=O)Cc1cnc(C)nc1N` was tested, and the mutagenic call (Test System: AMES SALMONELLA TYPHIMURIUM, Strain/Indicator: TA97, Metabolic Activation: NONE, Method: PREINCUBATION) was “inactive; negative”, the mutagenic call (Test System: AMES SALMONELLA TYPHIMURIUM, Strain/Indicator: TA97, Metabolic Activation: RAT, LIVER, S-9, AROCLOR 1254, Method: PREINCUBATION) was “inactive; negative” and the mutagenic call (Test System: AMES SALMONELLA TYPHIMURIUM, Strain/Indicator: TA102, Metabolic Activation: NONE, Method: PREINCUBATION) was “inactive; negative”. The mutagenic call (Test System: AMES SALMONELLA TYPHIMURIUM, Strain/Indicator: TA102, Metabolic Activation: RAT, LIVER, S-9, AROCLOR 1254, Method: PREINCUBATION) was “inactive; negative”.
With `O=[N+]([O-])c1cc([N+](=O)[O-])c2ccc3cccc4ccc1c2c43` the mutagenic call (End Point: IN VITRO CHROMOSOMAL ABERRATIONS, Test System: CHINESE HAMSTER LUNG (CHL) CELLS, Metabolic Activation: NONE) was “active; positive”, the mutagenic call (End Point: IN VITRO CHROMOSOMAL ABERRATIONS, Test System: CHINESE HAMSTER LUNG (CHL) CELLS, Metabolic Activation: RAT, LIVER, S-9, KC-400) was “active; positive” and the mutagenic call (Test System: AMES SALMONELLA TYPHIMURIUM, Strain/Indicator: TA98 (1,8-DNP6), Metabolic Activation: NONE, Method: STANDARD PLATE) was “active; positive”. For the same compound, the mutagenic call (Test System: AMES SALMONELLA TYPHIMURIUM, Strain/Indicator: TA98 (NR), Metabolic Activation: NONE, Method: STANDARD PLATE) was “active; positive”, the mutagenic call [1] was “active; positive” and the mutagenic call [4] was “active; positive”. The mutagenic call (Test System: AMES SALMONELLA TYPHIMURIUM, Strain/Indicator: TA98, Metabolic Activation: RAT, LIVER, S-9, PCB (10%), Method: PREINCUBATION) was “inactive; negative”, the mutagenic call [5] was “active; positive” and the mutagenic call (Test System: AMES SALMONELLA TYPHIMURIUM, Strain/Indicator: TA100, Metabolic Activation: RAT, LIVER, CYTOSOL, AROCLOR 1254, Method: STANDARD PLATE) was “active; positive”. The mutagenic call (Test System: AMES SALMONELLA TYPHIMURIUM, Strain/Indicator: TA100, Metabolic Activation: RAT, LIVER, CYTOSOL, Method: STANDARD PLATE) was “active; positive”, the mutagenic call (Test System: AMES SALMONELLA TYPHIMURIUM, Strain/Indicator: TA100, Metabolic Activation: RAT, LIVER, MICROSOMES, AROCLOR 1254, Method: STANDARD PLATE) was “active; positive” and the mutagenic call (Test System: AMES SALMONELLA TYPHIMURIUM, Strain/Indicator: TA100, Metabolic Activation: RAT, LIVER, MICROSOMES, Method: STANDARD PLATE) was “active; positive”. The mutagenic call [6] was “inactive; negative”, the mutagenic call (Test System: AMES SALMONELLA TYPHIMURIUM, Strain/Indicator: TA100, Metabolic Activation: RAT, LIVER, S-9, Method: STANDARD PLATE) was “active; positive” and the mutagenic call (Test System: AMES SALMONELLA TYPHIMURIUM, Strain/Indicator: TA7001, Metabolic Activation: NONE, Method: PREINCUBATION) was “active; positive”. The mutagenic call (Test System: AMES SALMONELLA TYPHIMURIUM, Strain/Indicator: TA7002, Metabolic Activation: NONE, Method: PREINCUBATION) was “active; positive”, the mutagenic call (Test System: AMES SALMONELLA TYPHIMURIUM, Strain/Indicator: TA7003, Metabolic Activation: NONE, Method: PREINCUBATION) was “active; positive” and the mutagenic call (Test System: AMES SALMONELLA TYPHIMURIUM, Strain/Indicator: TA7004, Metabolic Activation: NONE, Method: PREINCUBATION) was “active; positive”. For the same compound, the mutagenic call (Test System: AMES SALMONELLA TYPHIMURIUM, Strain/Indicator: TA7005, Metabolic Activation: NONE, Method: PREINCUBATION) was “active; positive”, the mutagenic call (Test System: AMES SALMONELLA TYPHIMURIUM, Strain/Indicator: TA7006, Metabolic Activation: NONE, Method: PREINCUBATION) was “active; positive” and the mutagenic call (Test System: UDS HUMAN HEPATOMA CELLS, Strain/Indicator: HEPG2/THY INCORP, Metabolic Activation: NONE) was “inactive; negative”.
With `CCN(Cc1cccc(S(=O)(=O)O)c1)c1ccc(C(=C2C=CC(=[N+](CC)Cc3cccc(S(=O)(=O)O)c3)C=C2)c2ccccc2S(=O)(=O)[O-])cc1` the mutagenic call (End Point: IN VIVO MICRONUCLEUS, Test System: BONE MARROW POLYCHROMATIC ERYTHROCYTES, Species: MOUSE, Strain/Sex: DDY/MALE, Route: IP) was “inactive; negative”, the mutagenic call (Test System: AMES SALMONELLA TYPHIMURIUM, Strain/Indicator: TA98, Metabolic Activation: HAMSTER, LIVER, S-9, AROCLOR 1254, Method: STANDARD PLATE) was “active; positive” and the mutagenic call (Test System: AMES SALMONELLA TYPHIMURIUM, Strain/Indicator: TA98, Metabolic Activation: HAMSTER, LIVER, S-9, Method: PREINCUBATION (PRIVAL METHOD)) was “active; positive”. For the same compound, the mutagenic call [1] was “inactive; negative”, the mutagenic call (Test System: AMES SALMONELLA TYPHIMURIUM, Strain/Indicator: TA98, Metabolic Activation: S-9, Method: PREINCUBATION) was “inactive; negative” and the mutagenic call (Test System: AMES SALMONELLA TYPHIMURIUM, Strain/Indicator: TA100, Metabolic Activation: HAMSTER, LIVER, S-9, Method: PREINCUBATION (PRIVAL METHOD)) was “active; positive”. For the same compound, the mutagenic call [2] was “inactive; negative”, the mutagenic call (Test System: AMES SALMONELLA TYPHIMURIUM, Strain/Indicator: TA100, Metabolic Activation: S-9, Method: PREINCUBATION) was “inactive; negative” and the mutagenic call (Test System: AMES SALMONELLA TYPHIMURIUM, Strain/Indicator: TA1538, Metabolic Activation: RAT, LIVER, S-9, AROCLOR 1254, HAMSTER, LIVER, S-9, AROCLOR 1254, Method: STANDARD PLATE) was “active; positive”. The mutagenic call [3] was “active; positive. reevaluation of results: positive” and the mutagenic call (Test System: Mouse lymphoma, Strain/Indicator: L5178Y (tk+/tk-), Metabolic Activation: None, Method: Suspension/plate) was “inactive; negative”.
`CC(C)(O)CCc1ccc(O)c2c(=O)c3c(O)c4c(cc3oc12)O[C@H]1OC=C[C@@H]41` was tested, and the mutagenic call [4] was “active; positive”, the mutagenic call (Test System: AMES SALMONELLA TYPHIMURIUM, Strain/Indicator: TA98, Metabolic Activation: RAT, LIVER, S-9, AROCLOR 1254, Method: STANDARD PLATE) was “active; positive” and the mutagenic call [5] was “active; positive”. The mutagenic call [6] was “active; positive”.
